Laboratory results: US8524755B2 (priority 2009, dated 2013)

How the values were obtained:
Endothelin ETA (h) = target: T1, Endothelin ETA (h) (Homo sapiens, UniProt P25101); assay: Binding ETA (h) (ag); conditions: read-out: % Inhibition of Control Specific Binding @ 10 μM
T1 construct: expressed in transfected cells; host or cells: CHO cells
T1 sequence (P25101 21-427): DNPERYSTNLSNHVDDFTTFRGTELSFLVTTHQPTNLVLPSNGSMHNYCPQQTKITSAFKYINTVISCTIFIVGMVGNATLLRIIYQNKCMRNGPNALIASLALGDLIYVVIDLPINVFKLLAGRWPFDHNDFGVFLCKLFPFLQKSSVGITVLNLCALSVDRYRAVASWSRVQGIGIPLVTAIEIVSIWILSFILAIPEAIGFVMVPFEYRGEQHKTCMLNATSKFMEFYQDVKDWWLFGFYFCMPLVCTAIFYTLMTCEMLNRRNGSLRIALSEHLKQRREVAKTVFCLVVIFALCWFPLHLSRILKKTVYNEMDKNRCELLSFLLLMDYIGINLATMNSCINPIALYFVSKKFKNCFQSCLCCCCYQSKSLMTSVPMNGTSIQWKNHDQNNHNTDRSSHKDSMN
Procedure: (§1) Radioligand binding assay methods utilized to measure the activity of compounds of the invention will be familiar to those skilled in the art. In each assay case, the assay components such as, for example, the cell-type, ligand, reference compound and the like, will be familiar to practitioners of such an assay.
(§2) Analysis and Expression of Results: Compounds of the invention were tested in the biochemical assays and percent inhibition of specific binding was determined. The specific ligand binding to the receptors is defined as the difference between the total binding and the nonspecific binding determined in the presence of an excess of unlabelled ligand. The results are expressed as a percent inhibition of control specific binding (100−((measured specific binding/control specific binding)×100)) obtained in the presence of test compounds.

Histamine H2 (h) = target: T2, Histamine H2 (h) (Homo sapiens, UniProt P25021); assay: Binding H2 (h) (aa); conditions: read-out: % Inhibition of Control Specific Binding @ 10 μM
T2 construct: expressed in transfected cells; host or cells: CHO cells
T2 sequence (P25021 whole entry): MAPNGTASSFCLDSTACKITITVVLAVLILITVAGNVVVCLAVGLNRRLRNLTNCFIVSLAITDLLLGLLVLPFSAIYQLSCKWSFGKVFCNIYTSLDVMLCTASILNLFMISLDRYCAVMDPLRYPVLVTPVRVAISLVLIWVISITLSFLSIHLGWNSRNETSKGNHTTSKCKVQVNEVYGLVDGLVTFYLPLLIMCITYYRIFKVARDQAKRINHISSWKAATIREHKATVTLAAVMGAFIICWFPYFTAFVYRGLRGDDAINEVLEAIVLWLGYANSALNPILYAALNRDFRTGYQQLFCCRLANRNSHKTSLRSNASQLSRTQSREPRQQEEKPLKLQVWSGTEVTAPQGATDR
Procedure: as §1, §2

CysLT1 (LTD4) (h) = target: T3, CysLT1 (LTD4) (h) (Homo sapiens, UniProt Q9Y271); assay: Binding CysLT1 (LTD4) (ag); conditions: read-out: % Inhibition of Control Specific Binding @ 10 μM
T3 construct: expressed in transfected cells; host or cells: CHO cells
T3 sequence (Q9Y271 1-337): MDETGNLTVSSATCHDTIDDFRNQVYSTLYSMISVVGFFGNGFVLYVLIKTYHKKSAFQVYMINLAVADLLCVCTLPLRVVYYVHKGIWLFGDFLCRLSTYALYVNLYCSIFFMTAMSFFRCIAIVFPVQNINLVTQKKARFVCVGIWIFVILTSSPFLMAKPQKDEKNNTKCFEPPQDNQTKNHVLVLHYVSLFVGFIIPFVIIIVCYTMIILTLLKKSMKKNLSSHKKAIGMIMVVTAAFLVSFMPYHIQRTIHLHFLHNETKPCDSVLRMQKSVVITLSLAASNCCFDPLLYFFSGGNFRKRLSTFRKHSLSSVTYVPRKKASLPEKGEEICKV
Procedure: as §1, §2

Thyroid hormone TR (TH) = assay: Binding TR (TH) (ag); parameters: species or system rat
Procedure: as §1, §2

human androgen receptor = target: T4, human androgen receptor (Homo sapiens, UniProt P10275, T878A); assay: Human Androgen Receptor (AR) Binding; conditions: AR Binding Activity Ki (μM)
T4 construct: The human androgen receptor was expressed in LNCAP cells; endogenous in cells; host or cells: LNCaP cells (supernatant of homogenate)
T4 sequence (P10275 1-920 T878A): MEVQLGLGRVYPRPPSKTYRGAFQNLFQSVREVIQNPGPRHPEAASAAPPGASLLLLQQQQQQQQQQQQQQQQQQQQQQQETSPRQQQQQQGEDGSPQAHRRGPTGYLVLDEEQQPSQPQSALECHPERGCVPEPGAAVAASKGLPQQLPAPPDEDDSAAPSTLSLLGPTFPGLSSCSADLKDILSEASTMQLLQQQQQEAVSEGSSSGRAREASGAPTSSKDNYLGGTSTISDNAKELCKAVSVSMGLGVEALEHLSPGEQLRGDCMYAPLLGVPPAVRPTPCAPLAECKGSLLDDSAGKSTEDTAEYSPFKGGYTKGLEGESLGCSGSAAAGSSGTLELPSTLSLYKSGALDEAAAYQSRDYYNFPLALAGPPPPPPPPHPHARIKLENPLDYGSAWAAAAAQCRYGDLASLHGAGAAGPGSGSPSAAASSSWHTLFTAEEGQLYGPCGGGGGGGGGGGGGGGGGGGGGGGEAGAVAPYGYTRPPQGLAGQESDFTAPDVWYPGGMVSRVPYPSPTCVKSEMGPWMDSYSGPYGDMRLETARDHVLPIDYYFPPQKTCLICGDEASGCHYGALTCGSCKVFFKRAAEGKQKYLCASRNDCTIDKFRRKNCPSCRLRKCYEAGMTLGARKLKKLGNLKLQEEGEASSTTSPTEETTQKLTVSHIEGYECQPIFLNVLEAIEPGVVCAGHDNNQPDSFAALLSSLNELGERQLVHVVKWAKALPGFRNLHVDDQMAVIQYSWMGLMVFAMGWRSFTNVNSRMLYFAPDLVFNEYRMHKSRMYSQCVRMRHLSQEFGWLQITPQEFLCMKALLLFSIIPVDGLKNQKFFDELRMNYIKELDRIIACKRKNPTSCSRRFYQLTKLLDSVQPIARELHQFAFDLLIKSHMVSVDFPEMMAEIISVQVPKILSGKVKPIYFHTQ
Procedure: Tissue Preparation: The human androgen receptor was expressed in LNCAP cells which were cultured and harvested by trypsinization from T-175 flasks. The frozen pellet was thawed and resuspended by sonication, then diluted to the appropriate concentration. The homogenate was centrifuged @ 48,000 g for 10 min at 4° C. The supernatant was used. The protein was determined. The tissue was diluted to 0.325 mg/mL with assay buffer so that each tube received 65 μg of protein, or the final assay concentration was 0.260 mg/mL.
Buffers: 25 mM HEPES pH7.4; 1.0 mM EDTA; 10 mM sodium molybdate; 10% Glycerol; 0.5 mM PFSM (dissolved PMSF in EtOH first, before adding to remaining buffer).
Binding Reaction: (Liao, et al. “The Use of a Hydroxylapatite-Filter Steroid Receptor Assay Method in the Study of the Modulation of Androgen Receptor Interaction.” J. Steroid Biochem. (1984), 20:11-17 (with modifications)). […] The binding reaction was initiated with the addition of tissue, and was incubated at 0-4° C. (in refrigerator) for 18-22 h (overnight). The binding reaction was terminated by rapid filtration of the tube contents onto 0.1% PEI treated GF/B filters. The assay tubes were rinsed once with ice-cold […] HEPES, then rapidly rinsed with 6×1 mL/tube of the same wash buffer. Radioactivity trapped on the filters was assessed using liquid scintillation spectrophotometry after soaking the filers for at least 1 h in scintillation cocktail. […] Specific binding was calculated from the difference between the total and non-specific binding. IC50 values were determined by plotting specific binding as a function of test-compound concentration.

[1] = first column, Reference Compound Mibolerone
[2] = second column, Reference Compound Mibolerone
[3] = Reference Compound Methyltrienolone

Row | SMILES | inhibition at 10 µM (Endothelin ETA (h)) [%] | inhibition at 10 µM (Histamine H2 (h)) [%] | inhibition at 10 µM (CysLT1 (LTD4) (h)) [%] | % Inhibition of Control Specific Binding @ 10 μM (Thyroid hormone TR (TH)) [%] | Ki (human androgen receptor; [1]) [µM] | Ki (human androgen receptor; [2]) [µM] | Ki (human androgen receptor; [3]) [µM]
1 | CNC(=O)c1ccc(N2C(=O)N(c3ccc(C#N)c(C(F)(F)F)c3)C(=O)C2(C)C)cc1F [(MIV), 4-(3-(4-cyano-3-(trifluoromethyl)phenyl)-5,5-dimethyl-2,4-dioxoimidazolidin-1-yl)-2-fluoro-N-methylbenzamide] | -27 | -20 | 11 | −2 | 0.69 | 0.97 | 0.361
2 | CC1(C)C(=O)N(c2ccc(C#N)c(C(F)(F)F)c2)C(=S)N1c1ccc(C(=O)O)c(F)c1 [(MI), 4-(3-(4-cyano-3-(trifluoromethyl)phenyl)-5,5-dimethyl-4-oxo-2-thioxoimidazolidin-1-yl)-2-fluorobenzoic acid] | -21 | -41 | 3 | −7 |  |  | > 10
3 | CC1(C)C(=O)N(c2ccc(C#N)c(C(F)(F)F)c2)C(=O)N1c1ccc(C(N)=O)c(F)c1 [(MIII), 4-(3-(4-cyano-3-(trifluoromethyl)phenyl)-5,5-dimethyl-2,4-dioxoimidazolidin-1-yl)-2-fluorobenzamide] | -12 | -19 | 11 | −9 | 0.83 | 1.5 | 0.314
4 | CC1(C)C(=O)N(c2ccc(C#N)c(C(F)(F)F)c2)C(=S)N1c1ccc(C(N)=O)c(F)c1 [(MII), 4-(3-(4-Cyano-3-(trifluoromethyl)phenyl)-5,5-dimethyl-4-oxo-2-thioxoimidazolidin-1-yl)-2-fluorobenzamide] | -16 | -27 | 18 | 0 | 0.074 | 0.051 | 0.059
